Patent publication US9827250B2, “Lens incorporating myopia control optics and muscarinic agents” (Johnson & Johnson Vision Care, Inc., priority 2012, dated 2017)

Tests used:
[1] = Drug release from drug loaded lenses into PBS; format: physicochemical; conditions: 34 degrees C
Experimental: Five drug loaded lenses, all together, were placed into 1 mL of phosphate buffered saline (PBS) and placed in a shaking water bath at thirty-four (34) degrees C. Samples were taken at regular intervals and replaced with fresh PBS. Release samples were analyzed spectrophotometrically to determine the concentration. As well, the nature of the peaks was also examined to determine whether there were any changes relative to the control samples (freshly prepared drug in appropriate buffer solutions). Drug loading and release was controlled using different loading concentrations to determine whether the release rate of the drug could be altered by changing simply or easily controlled conditions. Various drug concentrations were examined. In the case of 1 DAM, AT in ethanol and water (1:1) at various concentrations was examined or utilized. For the ATSM release from ATE lenses, the lenses were removed from the loading solution and rinsed to remove loosely physically adsorbed drug. For the 1 DAM lenses, the lenses were dried to remove any residual ethanol and rehydrated prior to the release study.
To establish drug release concentrations, five drug loaded lenses were placed into 1 ml of phosphate buffered saline (PBS) solution and placed in a shaking water bath at 34° C. […] Samples of solution were analyzed spectrophotometrically to determine the concentration of the released drug.

progression of myopia = conditions: 0.5 percent drops instilled one time per day; cited from earlier work

Compound: CN1[C@@H]2CC[C@H]1C[C@@H](OC(=O)C(CO)c1ccccc1)C2 (stereo partly drawn) [ATSM, atropine sulphate monohydrate]
- release of drug from 1 DAM lenses ([1]; 1 DAM lenses, FIG. 5): release more quickly in greater amounts
- release rate from ATE lenses as compared to 1 DAM lenses ([1]; ATE lenses, FIG. 7): somewhat lower release rate

Compound: CN1[C@@H]2CC[C@H]1C[C@@H](OC(=O)C(CO)c1ccccc1)C2 (stereo partly drawn) [Atropine, atropine]
- efficacy in slowing the progression of myopia (progression of myopia): show efficacy in slowing the progression of myopia
